Toxic doses and inconclusive results are not listed.
Tested on: L1210 leukemia ip in BDF1 mice, survival T/C
Test: NCI In Vivo Anticancer Drug Screen. Data for tumor model L1210 Leukemia (intraperitoneal) in B6D2F1 (BDF1) mice
Conditions: endpoint: mean survival time, higher = longer survival
Summary of the method: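 Tumor was transplanted into mice, which were then dosed with test compound or vehicle alone. Survival was recorded for each group, and the treated figure was expressed relative to the control figure.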

[1] = dose: 100.0 mg/kg/injection, schedule: Q04DX003 (ip), vehicle: saline with Tween-80
[2] = dose: 200.0 mg/kg/injection, schedule: Q04DX003 (ip), vehicle: saline with Tween-80
[3] = dose: 100.0 mg/kg/injection, schedule: Q04DX002 (ip), vehicle: Klucel (hydroxypropylcellulose) (HPC)
[4] = dose: 200.0 mg/kg/injection, schedule: Q04DX002 (ip), vehicle: Klucel (hydroxypropylcellulose) (HPC)
[5] = dose: 400.0 mg/kg/injection, schedule: Q04DX002 (ip), vehicle: Klucel (hydroxypropylcellulose) (HPC)
[6] = dose: 100.0 mg/kg/injection, schedule: Q01DX001 (ip), vehicle: saline
[7] = dose: 200.0 mg/kg/injection, schedule: Q01DX001 (ip), vehicle: saline
[8] = dose: 400.0 mg/kg/injection, schedule: Q01DX001 (ip), vehicle: saline
[9] = dose: 100.0 mg/kg/injection, schedule: Q01DX001 (ip), vehicle: saline with Tween-80
[10] = dose: 200.0 mg/kg/injection, schedule: Q01DX001 (ip), vehicle: saline with Tween-80
[11] = dose: 100.0 mg/kg/injection, schedule: Q01DX009 (ip), vehicle: saline with Tween-80
[12] = dose: 100.0 mg/kg/injection, schedule: Q01DX009 (ip), vehicle: saline
[13] = dose: 100.0 mg/kg/injection, schedule: Q01DX001 (ip), vehicle: carboxymethylcellulose (CMC)
[14] = dose: 200.0 mg/kg/injection, schedule: Q01DX001 (ip), vehicle: carboxymethylcellulose (CMC)
[15] = dose: 400.0 mg/kg/injection, schedule: Q01DX001 (ip), vehicle: carboxymethylcellulose (CMC)
[16] = dose: 100.0 mg/kg/injection, schedule: Q01DX009 (ip), vehicle: Klucel (hydroxypropylcellulose) (HPC)
[17] = dose: 100.0 mg/kg/injection, schedule: Q04DX003 (ip), vehicle: Klucel (hydroxypropylcellulose) (HPC)
[18] = dose: 200.0 mg/kg/injection, schedule: Q01DX009 (ip), vehicle: Klucel (hydroxypropylcellulose) (HPC)
[19] = dose: 200.0 mg/kg/injection, schedule: Q04DX003 (ip), vehicle: Klucel (hydroxypropylcellulose) (HPC)
[20] = dose: 400.0 mg/kg/injection, schedule: Q01DX009 (ip), vehicle: Klucel (hydroxypropylcellulose) (HPC)
[21] = dose: 400.0 mg/kg/injection, schedule: Q04DX003 (ip), vehicle: Klucel (hydroxypropylcellulose) (HPC)

For `C=C1C(=O)O[C@@H]2C[C@@H](C)[C@@H]3[C@@H](OC4OC(COC(C)=O)C(O)C(O)C4O)CC(=O)[C@@]3(C)C[C@H]12` (stereo partly specified), the T/C (dose: 6.4 mg/kg/injection, schedule: Q01DX009 (ip), vehicle: saline) was 101 % of control, the T/C (dose: 9.6 mg/kg/injection, schedule: Q01DX009 (ip), vehicle: saline) was 97 % of control and the T/C (dose: 14.0 mg/kg/injection, schedule: Q01DX009 (ip), vehicle: saline) was 104 % of control. The T/C (dose: 22.0 mg/kg/injection, schedule: Q01DX009 (ip), vehicle: saline) was 98 % of control, the T/C [1] was 100 % of control and the T/C [2] was 89 % of control. The T/C (dose: 400.0 mg/kg/injection, schedule: Q04DX003 (ip), vehicle: saline with Tween-80) was 94 % of control.

For `CC(=O)O[C@@H]1CC[C@]2(C)C(=CC[C@@H]3C4CC5O[C@]6(CCC(C)CN6)C(C)C5[C@]4(C)CCC32)C1` (stereo partly specified), the T/C [3] was 93 % of control, the T/C [4] was 89 % of control and the T/C [5] was 93 % of control.

`CN(C)S(=O)(=O)c1ccc(NC(=O)OCc2ccccc2)cc1` was tested, and the T/C [6] was 96 % of control, the T/C [7] was 94 % of control and the T/C [8] was 92 % of control.

With `Nc1cccc(OCCc2ccccc2)c1` the T/C [9] was 96 % of control, the T/C [10] was 94 % of control and the T/C (dose: 400.0 mg/kg/injection, schedule: Q01DX001 (ip), vehicle: saline with Tween-80) was 96 % of control.

`CC(=O)OCC(C)CCC(=O)C(C)C1C(=O)CC2CC3CC(OC(C)=O)CCC3(C)CC21C` (stereo unspecified) was tested, and the T/C [3] was 96 % of control, the T/C [4] was 100 % of control and the T/C [5] was 96 % of control.

For `O=C(NCc1ccccc1)Sc1ccccc1`, the T/C (dose: 87.5 mg/kg/injection, schedule: Q01DX001 (ip), vehicle: Klucel (hydroxypropylcellulose) (HPC)) was 96 % of control.

For `CC(=O)OC1C=CS(=O)(=O)C1` (stereo unspecified), the T/C [11] was 94 % of control, the T/C (dose: 200.0 mg/kg/injection, schedule: Q01DX009 (ip), vehicle: saline with Tween-80) was 103 % of control and the T/C (dose: 400.0 mg/kg/injection, schedule: Q01DX009 (ip), vehicle: saline with Tween-80) was 96 % of control.

`O=S(Cc1ccccc1)C(Cl)(Cl)c1ccccc1` (stereo unspecified) was tested, and the T/C (dose: 100.0 mg/kg/injection, schedule: Q01DX001 (ip), vehicle: other) was 96 % of control, the T/C (dose: 200.0 mg/kg/injection, schedule: Q01DX001 (ip), vehicle: other) was 98 % of control and the T/C (dose: 400.0 mg/kg/injection, schedule: Q01DX001 (ip), vehicle: other) was 102 % of control.

For `Nc1ccc2c(ccc3cccc[n+]32)c1`, the T/C [6] was 105 % of control and the T/C [7] was 108 % of control.

In the case of `O=COc1ccc([N+](=O)[O-])cc1`, the T/C (dose: 25.0 mg/kg/injection, schedule: Q01DX009 (ip), vehicle: saline) is reported as 98 % of control, the T/C (dose: 50.0 mg/kg/injection, schedule: Q01DX009 (ip), vehicle: saline) is reported as 95 % of control and the T/C [12] is reported as 98 % of control. For the same compound, the T/C (dose: 100.0 mg/kg/injection, schedule: Q04DX003 (ip), vehicle: saline) was 101 % of control.

For `Cc1ccc(S(=O)(=O)OCC2OCOC2C2OCOC2COS(=O)(=O)c2ccc(C)cc2)cc1` (stereo unspecified), the T/C (dose: 56.25 mg/kg/injection, schedule: Q01DX009 (ip), vehicle: carboxymethylcellulose (CMC)) was 95 % of control, the T/C [13] was 95 % of control and the T/C (dose: 112.5 mg/kg/injection, schedule: Q01DX009 (ip), vehicle: carboxymethylcellulose (CMC)) was 89 % of control. For the same compound, the T/C [14] was 96 % of control, the T/C (dose: 225.0 mg/kg/injection, schedule: Q01DX009 (ip), vehicle: carboxymethylcellulose (CMC)) was 87 % of control and the T/C [15] was 90 % of control.

With `CCC[CH2][Sn]([I])([CH2]C)[CH2]C` the T/C [3] was 90 % of control and the T/C [5] was 101 % of control.

In the case of `CCOC(=O)c1ccc(NCc2nnc3nc(N)nc(N)c3n2)cc1`, the T/C (dose: 50.0 mg/kg/injection, schedule: Q01DX001 (ip), vehicle: saline with Tween-80) is reported as 103 % of control, the T/C [9] is reported as 98 % of control and the T/C [10] is reported as 97 % of control.

For `Cc1ccc(C(=O)OCC(C)C)s1`, the T/C [13] was 98 % of control, the T/C [14] was 101 % of control and the T/C [15] was 98 % of control.

For `O=C(O)/C=C/C1CCCCC1`, the T/C (dose: 75.0 mg/kg/injection, schedule: Q01DX001 (ip), vehicle: saline) was 97 % of control, the T/C (dose: 150.0 mg/kg/injection, schedule: Q01DX001 (ip), vehicle: saline) was 95 % of control and the T/C (dose: 300.0 mg/kg/injection, schedule: Q01DX001 (ip), vehicle: saline) was 95 % of control.

For `CNC(=S)n1ncnc1NC=O`, the T/C (dose: 100.0 mg/kg/injection, schedule: Q04DX003 (ip), vehicle: acetone) was 98 % of control.

With `CCOC1=C(Br)C=CN(S(=O)(=O)c2ccc(C)cc2)c2ccc(OC)cc21` the T/C [16] was 98 % of control, the T/C [17] was 95 % of control and the T/C [18] was 101 % of control. The T/C [19] was 101 % of control, the T/C [20] was 100 % of control and the T/C [21] was 91 % of control.

`CCOS(=O)(=O)c1ccc([N+](=O)[O-])cc1[N+](=O)[O-]` was tested, and the T/C [12] was 97 % of control and the T/C (dose: 200.0 mg/kg/injection, schedule: Q01DX009 (ip), vehicle: saline) was 92 % of control.

`CCOC(=O)CC(NC(=O)N(CCCl)CCCl)C(=O)OCC` (stereo unspecified) was tested, and the T/C (dose: 62.5 mg/kg/injection, schedule: Q01DX Z (ip), vehicle: water) was 101 % of control, the T/C (dose: 125.0 mg/kg/injection, schedule: Q01DX Z (ip), vehicle: water) was 108 % of control and the T/C (dose: 250.0 mg/kg/injection, schedule: Q01DX Z (ip), vehicle: water) was 111 % of control.

In the case of `CC(=O)OCCc1nnnn1C`, the T/C [6] is reported as 108 % of control, the T/C [7] is reported as 104 % of control and the T/C [8] is reported as 103 % of control.

In the case of `CCOC(=O)C1CC2(c3ccccc3)C(c3ccccc3)=C(c3ccccc3)C1(c1ccccc1)C2O` (stereo unspecified), the T/C (dose: 50.0 mg/kg/injection, schedule: Q01DX001 (ip), vehicle: carboxymethylcellulose (CMC)) is reported as 94 % of control, the T/C [13] is reported as 94 % of control and the T/C [14] is reported as 103 % of control. For the same compound, the T/C [15] was 94 % of control.

`Cc1ccc(N=NN(C)C)cc1` was tested, and the T/C (dose: 12.5 mg/kg/injection, schedule: Q01DX009 (ip), vehicle: saline with Tween-80) was 97 % of control, the T/C (dose: 25.0 mg/kg/injection, schedule: Q01DX009 (ip), vehicle: saline with Tween-80) was 103 % of control and the T/C (dose: 25.0 mg/kg/injection, schedule: Q04DX003 (ip), vehicle: saline with Tween-80) was 105 % of control. The T/C (dose: 26.6 mg/kg/injection, schedule: Q01DX Z (ip), vehicle: methylcellulose (MC)) was 104 % of control, the T/C (dose: 31.25 mg/kg/injection, schedule: Q01DX001 (ip), vehicle: saline with Tween-80) was 108 % of control and the T/C (dose: 40.0 mg/kg/injection, schedule: Q01DX Z (ip), vehicle: methylcellulose (MC)) was 118 % of control. The T/C (dose: 50.0 mg/kg/injection, schedule: Q01DX009 (ip), vehicle: saline with Tween-80) was 103 % of control, the T/C (dose: 50.0 mg/kg/injection, schedule: Q04DX003 (ip), vehicle: saline with Tween-80) was 103 % of control and the T/C (dose: 62.5 mg/kg/injection, schedule: Q01DX001 (ip), vehicle: saline with Tween-80) was 110 % of control. The T/C (dose: 90.0 mg/kg/injection, schedule: Q01DX Z (ip), vehicle: methylcellulose (MC)) was 165 % of control, the T/C [11] was 104 % of control and the T/C [1] was 110 % of control. The T/C (dose: 180.0 mg/kg/injection, schedule: Q01DX Z (ip), vehicle: carboxymethylcellulose (CMC)) was 102 % of control and the T/C [2] was 109 % of control.

For `CNS(=O)(=O)c1ccccc1CC(O)(c1ccccc1)c1ccccc1`, the T/C (dose: 100.0 mg/kg/injection, schedule: Q01DX001 (ip), vehicle: steriod suspending solution) was 88 % of control and the T/C (dose: 200.0 mg/kg/injection, schedule: Q01DX001 (ip), vehicle: steriod suspending solution) was 87 % of control.

With `Clc1ccc(OCc2ccccc2)c(Cl)c1` the T/C [3] was 106 % of control, the T/C [4] was 106 % of control and the T/C [5] was 95 % of control.

`CO/C(=C\c1ccc(OC)cc1)C(=O)O` was tested, and the T/C [16] was 93 % of control, the T/C [17] was 100 % of control and the T/C [18] was 90 % of control. The T/C [19] was 101 % of control, the T/C [20] was 93 % of control and the T/C [21] was 100 % of control.

In the case of `O=C(Nc1nccs1)c1ccccc1F`, the T/C [3] is reported as 87 % of control, the T/C [4] is reported as 97 % of control and the T/C [5] is reported as 102 % of control.

Source: PubChem BioAssay AID248 (DTP/NCI, 2004)
